One series has as its target T1, RET^WT (Homo sapiens, UniProt P07949).
T1 construct: GST-RET^WT (658-1114 aa, final concentration of 0.5 nM)
T1 sequence (P07949 658-1114): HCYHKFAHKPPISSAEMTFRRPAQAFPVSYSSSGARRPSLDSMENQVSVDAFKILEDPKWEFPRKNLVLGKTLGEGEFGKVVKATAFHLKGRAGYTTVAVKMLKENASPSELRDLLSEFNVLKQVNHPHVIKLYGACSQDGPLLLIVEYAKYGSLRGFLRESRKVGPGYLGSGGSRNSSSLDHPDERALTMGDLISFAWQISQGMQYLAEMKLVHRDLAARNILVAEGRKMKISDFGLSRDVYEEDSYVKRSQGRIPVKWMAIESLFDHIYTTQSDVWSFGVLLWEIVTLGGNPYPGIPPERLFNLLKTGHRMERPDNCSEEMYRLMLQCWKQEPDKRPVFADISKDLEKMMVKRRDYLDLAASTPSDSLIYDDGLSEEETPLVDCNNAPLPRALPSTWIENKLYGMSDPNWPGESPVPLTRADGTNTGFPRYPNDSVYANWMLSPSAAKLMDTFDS
The series can be described thus: In vitro enzymatic activity assay on RET^WT (HTRF). The settings on record: GST-RET^WT (658-1114 aa) 0.5 nM, ATP 25 μM. It counts as biochemical. On the procedure: 1. In Vitro Enzymatic Activity Assay for Compounds on RET^WT
The compounds were diluted 5-fold with 100% DMSO starting from 0.2 mM (7 concentrations in total), and 2 μL of each concentration was added to 48 μL of reaction buffer (50 mM HEPES pH7.5, 0.1 mM Na3VO4, 5 mM MgCl2. 1 mM DTT, 0.001% Tween 20, and 100 μg/ml BSA) for dilution and mixing.
The 384-well plate was placed in an incubator and reacted at 23° C. for 2 h before the reaction was stopped by the addition of 5 μL of TK Antibody (purchased from Cisbio) and 5 μL of Streptavidin-XL665 (purchased from Cisbio). […] The enzymatic activity signal of RET^WT was measured at 7 concentrations for each compound and the data were calculated using GraphPad Prism software to obtain the IC50 value for the compound.

A further series deals with TT cells. The series can be described thus: TT cell proliferation activity (Cell-Titer Glo). The note with it: TT human thyroid carcinoma cells, 120 h. It counts as cell-based. On the procedure: 4. Determination of TT Cell Proliferation Activity of Compounds
TT cells, a human thyroid carcinoma cell line, were cultured in Ham's F-12K medium supplemented with 15% fetal bovine serum (FBS, purchased from Biological Industries, BI) and 1% penicillin/streptomycin double antibody (P/S, purchased from Life Technology) under conditions of 37° C. and 5% CO2. TT cells were plated in a 96-well plate (#3917 purchased from Corning) at a concentration of 5000 cells/195 μL/well the day before compound was detected. The compounds were diluted 3-fold with 100% DMSO starting from 10 mM (10 concentrations in total) after 24 h, and 2 μL of each concentration was diluted in 48 μL of Ham's F-12K medium. 5 μL of each diluted compound was added to the plated Cell suspension, the compound and cells were co-incubated in a cell incubator for 120 h (5 days), after the medium was aspirated. 25 μL of Cell-Titer Glo (G7570, purchased from Promega) reagent was added and re-incubated for 5-10 min. Fluorescence value was then read on Envision and the data were calculated using GraphPad Prism software to obtain IC50 values for inhibition of cell proliferation by the compounds.

The next series addresses VEGFR2 (Homo sapiens, UniProt P35968). The series can be described thus: In vitro enzymatic activity assay on VEGFR2 (HTRF). It counts as biochemical. The note with it: GST-VEGFR2 0.1 nM, ATP 2.5 μM. On the procedure:
3. n Vitro Enzymatic Activity Assay for Compounds on VEGFR2
The compounds were diluted 5-fold with 100% DMSO starting from 1 mM (7 concentrations in total), and 2 μL of each concentration was added to 48 μL of reaction buffer (50 mM HEPES pH 7.5, 0.1 mM Na3VO4, 5 mM MgCl2, 1 mM MnCl2, 1 mM DTT, 0.001% Tween 20, and 100 μg/ml BSA) for dilution and mixing. 2.5 μL of compounds and 5 μL of GST-VEGFR2 (final concentration of 0.1 nM) were added to a 384-well plate (OptiPlate-384, purchased from PerkinElmer), the mixture was mixed by centrifugation, and 2.5 μL of ATP (final concentration of 2.5 μM) and TK Peptide Substrate mixture (final concentration of 1 μM, purchased from Cisbio) were added to start the reaction, with a total reaction volume of 10 μL. The 384-well plate was placed in an incubator and reacted at 23° C. for 1.5 h before the reaction was stopped by the addition of 5 μL of TK Antibody (purchased from Cisbio) and 5 μL of Streptavidin-XL665 (purchased from Cisbio). After further incubation in the incubator for 1 h. fluorescence values (excitation at 320 nm, detecting emitted light at 665 nm and 620 nm, and a ratio of the two as an enzyme activity signal) were read on Envision (purchased from PerkinElmer). The enzymatic activity signal of VEGFR2 was measured at 7 concentrations for each compound and the data were calculated using GraphPad Prism software to obtain the IC50 value for the compound.

The target of a further series is T2, RET^V804M (Homo sapiens, UniProt P07949, V804M).
T2 construct: GST-RET^V804M (658-1114 aa, final concentration of 0.02 nM)
T2 sequence (P07949 658-1114 V804M): T1 sequence (P07949 658-1114) with V147M
Kind of series: In vitro enzymatic activity assay on RET^V804M (HTRF). It counts as biochemical. The settings on record: GST-RET^V804M (658-1114 aa) 0.02 nM, ATP 1.5 μM. For orientation: TR-FRET usually uses a lanthanide donor and a delayed reading to cut background.

Series [1] can be described thus: Pharmacokinetic data of compounds in male SD rats. It counts as in vivo. The settings on record: rat, po, intragastric, 5 mg/kg, suspension MC 0.5%, plasma. On the procedure:
6. Pharmacokinetic Data of Compounds
Male SD rats (Beijing Vital River Laboratory Animal Technology Co., Ltd) were divided into groups. 3 in each group, received intragastric administration with the suspension of the test sample (5 mg/kg, suspensions MC 0.5%), respectively. Animals were fasted overnight prior to the experiment from 10 h before dosing to 4 h after dosing. Blood was collected 0.25, 0.5, 1, 2, 4, 6, 8, and 24 h after administration, respectively. After isoflurane anesthesia using a small animal anesthesia machine, 0.3 mL of whole blood samples was taken through the fundus venous plexus, placed in a heparin anticoagulant tube, and were centrifuged at 4° C. 4000 rpm for 5 min plasma was transferred to the centrifuge tube, and stored at −80° C. until analysis. Samples in the plasma were extracted using protein precipitation and the extracts were analyzed by LC/MS.

Substitutions are numbered along the chain they refer to.

Chain of VEGFR2 (P35968 20-1356): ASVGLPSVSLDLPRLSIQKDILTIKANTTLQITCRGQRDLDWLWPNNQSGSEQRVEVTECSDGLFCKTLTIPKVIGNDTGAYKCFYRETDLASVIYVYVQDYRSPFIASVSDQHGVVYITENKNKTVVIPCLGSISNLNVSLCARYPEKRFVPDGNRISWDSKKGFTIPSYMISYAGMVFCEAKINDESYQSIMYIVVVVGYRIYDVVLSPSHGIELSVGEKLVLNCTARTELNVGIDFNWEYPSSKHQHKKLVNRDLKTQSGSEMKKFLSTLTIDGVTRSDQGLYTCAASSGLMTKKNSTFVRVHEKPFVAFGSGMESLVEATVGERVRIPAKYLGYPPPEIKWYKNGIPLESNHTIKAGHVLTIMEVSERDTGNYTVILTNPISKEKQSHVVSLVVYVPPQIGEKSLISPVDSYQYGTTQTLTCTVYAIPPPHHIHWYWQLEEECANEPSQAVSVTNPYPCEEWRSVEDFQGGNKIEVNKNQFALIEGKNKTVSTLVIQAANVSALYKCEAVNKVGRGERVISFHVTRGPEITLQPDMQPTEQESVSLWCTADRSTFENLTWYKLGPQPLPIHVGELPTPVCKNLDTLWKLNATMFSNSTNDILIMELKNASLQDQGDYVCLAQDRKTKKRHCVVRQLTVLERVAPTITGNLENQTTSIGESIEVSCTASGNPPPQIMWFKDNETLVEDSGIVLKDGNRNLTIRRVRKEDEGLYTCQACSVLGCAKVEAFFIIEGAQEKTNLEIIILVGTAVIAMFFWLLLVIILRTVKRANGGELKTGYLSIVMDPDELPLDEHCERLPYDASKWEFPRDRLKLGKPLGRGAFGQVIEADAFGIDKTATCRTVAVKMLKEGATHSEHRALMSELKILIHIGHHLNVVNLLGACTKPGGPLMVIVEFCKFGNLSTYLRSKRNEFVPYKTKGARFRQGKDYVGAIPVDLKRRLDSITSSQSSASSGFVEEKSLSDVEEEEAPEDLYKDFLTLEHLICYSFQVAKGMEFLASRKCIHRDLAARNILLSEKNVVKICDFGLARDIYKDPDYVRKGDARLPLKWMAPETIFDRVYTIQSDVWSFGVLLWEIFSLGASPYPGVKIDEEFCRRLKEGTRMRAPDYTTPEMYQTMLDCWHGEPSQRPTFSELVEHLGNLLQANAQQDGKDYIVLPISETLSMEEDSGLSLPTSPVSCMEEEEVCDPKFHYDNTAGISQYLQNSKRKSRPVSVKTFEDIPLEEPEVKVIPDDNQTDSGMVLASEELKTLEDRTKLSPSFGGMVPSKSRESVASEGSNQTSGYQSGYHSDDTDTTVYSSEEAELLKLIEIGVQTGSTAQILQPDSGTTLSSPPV

A word on the IC50: it is the point on the concentration scale where inhibition reaches its midpoint. High values mean a need for much substance, low ones inhibition by little substance. With `Cn1cc(-c2cc(-c3ccc(N4CC5CC(C4)N5Cc4ccc(S(C)(=O)=O)cn4)nc3)c3c(C#N)cnn3c2)cn1` [Example 79, 6-(1-(methyl)-1Hpyrazol-4-yl)-4-(6-(6-((5-(methylsulfonyl)pyridin-2-yl)methyl)-3,6-diazabicyclo[3.1.1]heptan-3-yl)pyridin-3-yl)pyrazolo[1,5-a]pyridine-3-carbonitrile], the IC50 at RET^WT is 0.331 nM; in the series on TT cells, 21.3 nM; on VEGFR2, 5.21 nM; against RET^V804M, 0.64 nM.
Turning to `COc1ccc(CN2C3CC2CN(c2ccc(-c4cc(N5CC(F)(F)C5)cn5ncc(C#N)c45)cn2)C3)nc1` [Example 46, 6-(3,3-difluoroazetidin-1-yl)-4-(6-(6-((5-methoxypyridin-2-yl)methyl)-3,6-diazabicyclo [3.1.1]heptan-3-yl)pyridin-3-yl) pyrazolo[1,5-a]pyridine-3-carbonitrile], the IC50 against RET^WT worked out at 0.159 nM; in the series on TT cells, 37.6 nM; at VEGFR2 it was 17.2 nM.
The AUC(0-inf) is total exposure, with the tail of the curve extrapolated. High values mean high exposure, low ones low exposure. Broadly, the Cmax is the highest concentration seen after dosing. As a reminder, the Tmax is the time from dosing to the highest level. As a reminder, the half-life is the time in which the quantity being followed falls by half. Higher therefore signals slow loss. Consider `COc1ccc(CN2CCN(c3ccc(-c4cc(N5CC(F)(F)C5)cn5ncc(C#N)c45)cn3)CC2)cn1` [Example 26, 6-(3,3-difluoroazetidin-1-yl)-4-(6-(4-((6-methoxypyridin-3-yl)methyl)piperazin-1-yl)pyridin-3-yl)pyrazolo[1,5-a]pyridine-3-carbonitrile], for which, at RET^WT, the IC50 was 0.422 nM. The IC50 against VEGFR2 was determined as 95.5 nM. Further, in series [1], the total exposure AUC(0-inf) turned out to be 45000 ng·h/mL, the peak level (Cmax) was 6000 ng/mL, the Tmax is 1.75 h and the half-life is 4.9 h.
In the case of `Cn1cc(-c2cc(-c3ccc(N4CCN(C(=O)C5=CCCC5)CC4)nc3)c3c(C#N)cnn3c2)cn1` [Example 2, 4-(6-(4-(cyclopent-1-ene-1-carbonyl)piperazin-1-yl)pyridin-3-yl)-6-(1-methyl-1Hpyrazol-4-yl)pyrazolo[1,5-a]pyridine-3-carbonitrile], the half-maximal inhibitory concentration (IC50) worked out at 0.108 nM at RET^WT, 26.1 nM with TT cells, 13.4 nM at VEGFR2 and 0.906 nM against RET^V804M.
In the case of `Cn1cc(-c2cc(-c3cnc(N4CCN(Cc5ccc(S(C)(=O)=O)cc5)CC4)cn3)c3c(C#N)cnn3c2)cn1` [Example 42, 6-(1-methyl-1Hpyrazol-4-yl)-4-(5-(4-(4-(methylsulfonyl)benzyl)piperazin-1-yl)pyrazin-2-yl)pyrazolo[1,5-a]pyridine-3-carbonitrile], the IC50 on RET^WT turned out to be 0.642 nM; in the series with TT cells, 47.9 nM; against VEGFR2 it was 42.5 nM.
As to `CS(=O)(=O)c1ccc(CN2C3CC2CN(c2ccc(-c4cc(-c5cnn(C(F)(F)F)c5)cn5ncc(C#N)c45)cn2)C3)cc1` [Example 84, 4-(6-(6-(4-(methylsulfonyl)benzyl)-3,64-diazabicyclo[3.1.1]heptan-3-yl)pyridin-3-yl)-6-(1-(trifluoromethyl)-1Hpyrazol-4-yl) pyrazolo[1,5-a] pyridine-3-carbonitrile], the IC50 against RET^WT was 0.309 nM. The midpoint of inhibition on VEGFR2, the IC50, lay at 13.3 nM. Further, in series [1], the area under the curve AUC(0-inf) was 27300 ng·h/mL, the Cmax was found to be 3090 ng/mL, the Tmax was 2 h and the half-life is 2.78 h.
Take `COc1ccc(CN2C3CC2CN(c2cnc(-c4cc(-c5cnn(C)c5)cn5ncc(C#N)c45)cn2)C3)cn1` [Example 3, 4-(5-(6-((6-methoxypyridin-3-yl)methyl)-3,6-diazabicyclo[3.1.1]heptan-3-yl)pyrazin-2-yl)-6-(1-methyl-1Hpyrazol-4-yl) pyrazolo[1,5-a]pyridine-3-carbonitride]: the concentration for half-maximal inhibition (IC50) in the series with TT cells stood at 1.01 nM; against VEGFR2, 3.01 nM.
In the case of `CS(=O)(=O)c1ccccc1CN1C2CC1CN(c1ccc(-c3cc(N4CC(F)(F)C4)cn4ncc(C#N)c34)cn1)C2` [Example 67, 6-(3,3-difluoroazetidin-1-yl)-4-(6-(6-(2-(methylsulfonyl)benzyl)-3,6-diazabicyclo [3.1.1]heptan-3-yl)pyridin-3-yl)pyrazolo[1,5-a]pyridine-3-carbonitrile], the results for the half-inhibitory concentration (IC50) against RET^WT, against VEGFR2 and at RET^V804M were 0.465 nM, 80.5 nM and 3.97 nM, respectively.
The corresponding values for `CSc1cccc(CN2C3CC2CN(c2ccc(-c4cc(-c5cnn(C(F)F)c5)cn5ncc(C#N)c45)cn2)C3)n1` [Example 74, 6-(1-(difluoromethyl)-1Hpyrazol-4-yl)-4-(6-(6-((6-(methylthio)pyridin-2-yl)methyl)-3,6-diazabicyclo[3.1.1]heptan-3-yl)pyridin-3-yl)pyrazolo[1,5-a]pyridine-3-carbonitrile] are 0.676 nM, 14.4 nM and 4.19 nM.
The corresponding values for `C=CC(=O)N1CCN(c2ccc(-c3cc(-c4cnn(C)c4)cn4ncc(C#N)c34)cn2)CC1` [Example 1, 4-(6-(4-acryloylpiperazin-1-yl)pyridin-3-yl)-6-(1-methyl-1Hpyrazol-4-yl)pyrazolo[1,5-a]pyridine-3-carbonitrile] are 0.352 nM, 4.49 nM and 1.21 nM.
With `CSCCN1CCN(c2ccc(-c3cc(-c4cnn(C)c4)cn4ncc(C#N)c34)cn2)CC1` [Example 21, 6-(1-methyl-1Hpyrazol-4-yl)-4-(6-(4-(2-(methylthio)ethyl)piperazin-1-yl)pyridin-3-yl)pyrazolo[1,5-a]pyridine-3-carbonitrile], the half-maximal inhibitory concentration (IC50) in the series on TT cells turned out to be 27.9 nM; on VEGFR2 it was 11.9 nM.

(Values after patent US12583855B2, “RET selective inhibitor, preparation method therefor and use thereof” (SHOUYAO HOLDINGS (BEIJING) CO., LTD., priority 2019, dated 2026).)
